Holding throughout (assay): KinomeScan profiling
Format in all cases: binding

Assay [1] deals with CDK2 (Homo sapiens, UniProt P24941). As to conditions: CDK2, 1 μM; read-out: % control. In short, it runs like this: (§1)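 Luminescence (RLU) was converted to percent of control, with DMSO set as 100% and a reference compound as 0%. Test compounds were run at 1 μM against 468 kinases. Kinases showing below 35% of control were scored as bound.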
The target of assay [2] is T1, TAK1 (Homo sapiens, UniProt O43318).
T1 construct: purchased KinomeScan® (panel service)
T1 sequence (O43318 1-606): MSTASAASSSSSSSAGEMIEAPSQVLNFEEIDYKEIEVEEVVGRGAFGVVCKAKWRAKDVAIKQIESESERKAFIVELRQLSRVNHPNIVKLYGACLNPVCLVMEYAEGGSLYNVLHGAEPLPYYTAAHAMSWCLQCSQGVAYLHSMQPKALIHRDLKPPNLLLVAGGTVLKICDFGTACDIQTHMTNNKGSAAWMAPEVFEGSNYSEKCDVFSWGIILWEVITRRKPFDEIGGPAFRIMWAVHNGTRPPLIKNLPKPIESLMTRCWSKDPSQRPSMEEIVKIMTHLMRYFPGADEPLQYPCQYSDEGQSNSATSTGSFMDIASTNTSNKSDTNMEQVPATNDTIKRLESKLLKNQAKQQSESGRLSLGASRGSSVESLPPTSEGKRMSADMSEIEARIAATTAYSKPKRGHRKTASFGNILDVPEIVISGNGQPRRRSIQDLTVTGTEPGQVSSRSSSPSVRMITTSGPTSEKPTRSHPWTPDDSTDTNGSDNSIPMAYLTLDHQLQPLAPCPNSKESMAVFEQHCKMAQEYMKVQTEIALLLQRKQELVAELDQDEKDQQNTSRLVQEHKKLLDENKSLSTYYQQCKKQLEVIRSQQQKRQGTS
As to conditions: TAK1, 1 μM; read-out: % control. Summed up: as §1

Assay [3] addresses T2, YSK4 (Homo sapiens, UniProt Q56UN5).
T2 sequence (Q56UN5 1-1328): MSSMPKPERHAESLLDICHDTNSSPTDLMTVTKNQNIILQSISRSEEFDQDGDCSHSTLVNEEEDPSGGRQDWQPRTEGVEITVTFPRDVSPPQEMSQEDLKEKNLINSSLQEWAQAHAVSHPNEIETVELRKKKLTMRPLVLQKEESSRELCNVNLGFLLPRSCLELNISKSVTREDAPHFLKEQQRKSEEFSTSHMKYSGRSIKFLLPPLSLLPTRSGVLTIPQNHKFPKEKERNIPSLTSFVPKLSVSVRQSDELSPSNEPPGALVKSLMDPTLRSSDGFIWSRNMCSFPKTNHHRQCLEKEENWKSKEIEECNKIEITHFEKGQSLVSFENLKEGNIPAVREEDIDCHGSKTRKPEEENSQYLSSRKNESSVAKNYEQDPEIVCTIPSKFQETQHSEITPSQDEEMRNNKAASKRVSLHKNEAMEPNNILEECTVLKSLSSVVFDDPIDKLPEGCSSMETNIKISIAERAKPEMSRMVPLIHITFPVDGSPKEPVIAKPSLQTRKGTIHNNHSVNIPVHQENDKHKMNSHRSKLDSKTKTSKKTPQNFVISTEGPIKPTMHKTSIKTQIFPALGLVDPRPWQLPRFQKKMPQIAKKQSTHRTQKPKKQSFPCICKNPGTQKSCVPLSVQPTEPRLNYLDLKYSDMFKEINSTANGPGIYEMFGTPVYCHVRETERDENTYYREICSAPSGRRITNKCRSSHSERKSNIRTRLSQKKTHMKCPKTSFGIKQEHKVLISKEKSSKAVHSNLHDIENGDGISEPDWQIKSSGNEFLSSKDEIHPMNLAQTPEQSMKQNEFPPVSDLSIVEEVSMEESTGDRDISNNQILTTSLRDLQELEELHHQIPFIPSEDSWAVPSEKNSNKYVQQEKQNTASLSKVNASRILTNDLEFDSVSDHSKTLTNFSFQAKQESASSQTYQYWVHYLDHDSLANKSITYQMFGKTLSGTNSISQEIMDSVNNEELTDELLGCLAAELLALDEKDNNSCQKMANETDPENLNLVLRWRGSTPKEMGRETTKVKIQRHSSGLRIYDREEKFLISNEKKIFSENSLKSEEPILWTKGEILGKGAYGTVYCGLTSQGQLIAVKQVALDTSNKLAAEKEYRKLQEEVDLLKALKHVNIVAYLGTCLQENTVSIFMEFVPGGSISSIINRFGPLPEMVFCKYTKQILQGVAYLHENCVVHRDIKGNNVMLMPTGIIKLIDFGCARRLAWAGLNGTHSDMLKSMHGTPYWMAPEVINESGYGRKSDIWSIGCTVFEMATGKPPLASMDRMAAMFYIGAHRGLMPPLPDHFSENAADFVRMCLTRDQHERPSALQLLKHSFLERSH
As to conditions: YSK4, 1 μM; read-out: % control. In short, it runs like this: as §1

Turning to `CNc1c(-c2cnn([C@H]3CCN(C(C)=O)C[C@@H]3F)c2)cnc2[nH]cc(Cl)c12` [Compound 77, 1-((3S,4S)-4-(4-(3-chloro-4-(methylamino)-1H-pyrrolo[2,3-b]pyridin-5-yl)-1H-pyrazol-1-yl)-3-fluoropiperidin-1-yl)ethan-1-one], the remaining binding at 1 µM amounted to 100% in assay [1], 21% in assay [2] and 2.6% in assay [3].
For `CNc1c(-c2ccc(C(=O)N3CCC(N4CCOCC4)CC3)cc2)cnc2[nH]cc(Cl)c12` [Compound 96, (4-(3-chloro-4-(methylamino)-1H-pyrrolo[2,3-b]pyridin-5-yl)phenyl)(4-morpholinopiperidin-1-yl)methanone] the same measures were 100%, 6.9% and 2.2%.
The like results for `O=C(c1ccc(-c2cnc3[nH]cc(Cl)c3c2NC2CCCC2)cc1)N1CCC(N2CCOCC2)CC1` [Compound 101, (4-(3-chloro-4-(cyclopentylamino)-1H-pyrrolo[2,3-b]pyridin-5-yl)phenyl)(4-morpholinopiperidin-1-yl)methanone] were, in that order, 100%, 6.1% and 63%.

These data come from US12275731B2, “Azaindole inhibitors of wild-type and mutant forms of LRRK2” (DANA-FARBER CANCER INSTITUTE, INC., priority 2018, dated 2025).
